What follows are molecules tested on NSC (assay: Increase in cell proliferation of human NSC cells assessed as increase in ATP level after 4 days by CelltiterGlo assay).
Format: functional

Structure (SMILES) | EC150 [nM]
COc1cc(N2CCC(c3cccc(Cl)c3)C2=O)ccc1-c1cn[nH]c1 (stereo not drawn) | 65.9
COc1cccc(C2CCN(c3ccc(-c4cnco4)c(OC)c3)C2=O)c1 (stereo not drawn) | 81.4
COc1cccc(C2CCN(c3ccc(-c4cn[nH]c4)c(OC)c3)C2=O)c1 (stereo not drawn) | 29.9
COc1cc(N2CCN(Cc3cccc(OC(F)(F)F)c3)C2=O)ccc1-c1cn[nH]c1 | 9.2
COc1cccc(C2CCN(c3ccc(-c4ccncc4)cc3)C2=O)c1 (stereo not drawn) | 15.5
COc1cc(N2CCN(Cc3ccccc3C(F)(F)F)C2=O)ccc1-c1ccncc1 | 35.1
COc1cc(N2CCC(c3ccccc3)C2=O)ccc1-c1cn[nH]c1 (stereo not drawn) | 41.4
COc1cccc(CN2CCN(c3ccc(-c4cn[nH]c4)c(OC)c3)C2=O)c1 | 23.9
COc1cccc(CN2CCN(c3ccc(-c4cn[nH]c4)c(F)c3)C2=O)c1 | 15.7
COc1cc(N2CCN(Cc3cccc(F)c3)C2=O)ccc1-c1cn[nH]c1 | 47
CCOc1cccc(CN2CCN(c3ccc(-c4cn[nH]c4)c(OC)c3)C2=O)c1 | 73.9
COc1cc(N2CCN(Cc3cccc(C(F)(F)F)c3)C2=O)ccc1-c1cn[nH]c1 | 8.6
COc1cc(N2CCN(Cc3cccc(C)c3)C2=O)ccc1-c1ccncc1 | 29.8
COc1cc(N2CCN(Cc3ccncc3)C2=O)ccc1-c1cn[nH]c1 | 42
COc1cccc(C2CCN(c3ccc(-c4ccncc4)c(OC)c3)C2=O)c1 (stereo not drawn) | 61.3
COc1cccc(CN2CCN(c3ccc(-c4cn[nH]c4)cc3F)C2=O)c1 | 41.6
O=C1C(c2ccc(F)cc2)CCN1c1ccc(-c2cn[nH]c2)cc1 (stereo not drawn) | 41.7
COc1cc(N2CCC(c3cccc(F)c3)C2=O)ccc1-c1cn[nH]c1 (stereo not drawn) | 77.6

— ChEMBL document CHEMBL3751793, “Preparation of N-Phenyl-lactam Derivatives Capable of Stimulating Neurogenesis and Their Use in the Treatment of Neurological Disorders” (2015)
